Earlier results, collected in publication PMC6260473 (Saudi Pharmaceutical Journal : SPJ, 2018).

Test system: human colorectal adenocarcinoma cell lined HT29
Details: read-out: IC50, cytotoxic effect, ref Nowak et al., 2014

Row | Compound | IC50 [µM]
1 | N.N.[Cl][Pt][Cl] [cisplatin] | 8.47
2 | COc1ccc(Cn2cnc3c(cc(N4CCOCC4)c4ccccc43)c2=O)cc1 [3-(4-methoxybenzyl)-6-(morpholin-4-yl)benzo[h]quinazolin-4(3H)-one] | 4.12
